# Assays:
# [1] = system: NS3/4a protease inhibitor resistant variant D168A in genotype 1b transient HCV replicon; experiment: Transient-transfected HCV replicon, genotype 1b D168A; assay type: cell-based; conditions: Hepatitis C virus, 72 h, read-out: EC50 1B D168A
# [2] = system: genotype 1b wild-type transient HCV replicon in Huh-7-derived cells; experiment: Transient-transfected HCV replicon, genotype 1b wild type; assay type: cell-based; conditions: Hepatitis C virus; transient-transfected replicon genotype 1b wild type, 72 h; read-out: EC50 1B WT
# NS3 genotype 1b protease = biological target: T1, NS3 genotype 1b protease (Hepatitis C virus genotype 1b, UniProt Q9WMX2, E1202G); experiment: Ki determination, NS3 protease genotype 1b (fluorogenic depsipeptide substrate); assay type: biochemical; conditions: NS3 protease domain genotype 1b, NS4A peptide
# T1 construct: Purified NS3 protease domain (amino acids 1-181) of the genotype 1b and 3a virus were generated as above; K3 hexahistidine tag (N); rTEV protease cleavage site (N); made in house; host or cells: E. coli BL21AI
# Text: Ki Determination for Genotypes 1b and 3a NS3 Protease.
# Purified NS3 protease domain (amino acids 1-181) of the genotype 1b and 3a virus were generated as above. The internally quenched fluorogenic depsipeptide substrate Ac-DED(Edans)-EEAbuψ[COO]ASK(Dabcyl)-NH2 and a synthetic peptide containing the hydrophobic core residues of the NS4A protein cofactor ([…]; NS4A peptide) were obtained from Anaspec, Inc. (San Jose, Calif.). Other chemicals and biochemicals were of reagent grade or better and were purchased from standard suppliers.
# Reactions were run at room temperature in buffer consisting of 50 mM HEPES, 40% glycerol, 0.05% Triton X-100, 10 mM DTT, and 10% DMSO. The final assay solutions contained 50 pM NS3 genotype 1b protease or 200 pM genotype 3a protease, 20 μM NS4A peptide, and 4 μM substrate (genotype 1b) or 2 μM substrate (genotype 3a). Inhibitor concentrations varied from 100 nM to 5 pM in 3-fold dilutions, and no-inhibitor controls were included.
# Compound dilutions were made in DMSO at 20× final concentration. Reaction mixtures were prepared in 96-well assay plates. A solution of enzyme and NS4A peptide in assay buffer (25 μL volume with both reagents at 4× final concentration) was mixed with 45 μL assay buffer and 5 μL of either inhibitor or DMSO, and pre-incubated at room temperature for 1 hour. The reaction was started by addition of 25 μL substrate solution at 4× final concentration. Plates were mixed vigorously for 5-10 seconds and reactions were allowed to proceed for 90 minutes. Fluorescence was measured every 30 s between 90 and 120 minutes reaction time using a Tecan InfiniTe M1000 or PerkinElmer Envision multimode plate reader with an excitation wavelength of 340 nm and an emission wavelength of 490 nm.
# Rates were calculated from the progress curves at steady state, in the time frame of 90-120 minutes after addition of substrate. To determine the Ki, rates were plotted as a function of inhibitor concentration, and the data were fit with equation 1 (Morrison, J. F., Biochimica et Biophysica Acta 1969, 185, 269-286) to calculate Ki^app using GraphPad Prism 5. Active fraction of enzyme was determined by active site titration with known potent inhibitors. Ki was calculated from Ki^app/(1+[[S]/Km]).
# [3] = system: genotype 3a stable HCV replicon (S52) in Huh-7-derived cells; experiment: Stable subgenomic HCV replicon, genotype 3a, Renilla luciferase; assay type: cell-based; conditions: Hepatitis C virus, 72 h, read-out: EC50 3A RLUC
# Method: (§1) Antiviral potency (EC50) was determined in both stable subgenomic HCV replicon cell lines and transient-transfected HCV replicon cells. The term half maximal effective concentration (EC50) refers to the concentration of a drug which induces a response halfway between the baseline and maximum after the exposure time specified below.
# (§2) Stable subgenomic HCV replicons for genotype 1a, 1b, 2a, 3a, and 4a were established in Huh-7-derived cells as described by Lohmann et al (Lohmann V, Korner F, Koch J, et al Replication of subgenomic hepatitis C virus RNAs in a hepatoma cell line. Science 1999; 285:119-3). Each stable cell line contains a bicistronic HCV replicon that encodes a humanized Renilla luciferase (hRLuc) reporter gene fused to a selectable neomycin-resistance gene, followed by an EMCV IRES and the NS3-NS5B coding region of HCV. […] Luciferase activity was measured as a marker for intracellular HCV replication levels.
# (§3) The genotype 1a stable replicon was derived from the H77 HCV strain and contained adaptive mutations P1496L and S2204I. The genotype 1b stable replicon was derived from the Con1 HCV strain and contained adaptive mutations E1202G, T1280I, and K1846T. […] The genotype 3a stable replicon was derived from the S52 HCV strain and contained adaptive mutations P1121 L, A1198T and S2210I (equivalent to S2204I in genotype 1). The genotype 4a stable replicon was derived from the ED43 HCV strain and contained adaptive mutations Q1691R and S2204I. All replicon cell lines were propagated in Huh-7-derived cells and maintained in Dulbecco's modified Eagle's Medium (DMEM) supplemented with 10% fetal bovine serum (FBS) and 0.5 mg/ml G418.
# (§4) To perform EC50 assays, cells from each HCV replicon were dispensed into 384-well plates. Compounds were dissolved in DMSO at a concentration of 10 mM and diluted in DMSO using an automated pipetting instrument. Three-fold serially diluted compounds were directly added to the cells using an automated instrument. DMSO was used as a negative (solvent; no inhibition) control, and a combination of three HCV inhibitors including a protease inhibitor; an NS5A inhibitor and a nucleoside inhibitor was used at concentrations >100×EC50 as a positive control (100% inhibition). Seventy-two hours later, cells were lysed and Renilla luciferase activity were quantified as recommended by the manufacturer (Promega-Madison, Wis.). Non-linear regression was performed to calculate […], values.
# [4] = system: genotype 4a stable HCV replicon (ED43) in Huh-7-derived cells; experiment: Stable subgenomic HCV replicon, genotype 4a, Renilla luciferase; assay type: cell-based; conditions: Hepatitis C virus, 72 h, read-out: EC50 4A RLUC
# Method: as §1, §2, §3, §4
# [5] = system: genotype 3a transient HCV replicon (S52) in Huh-7-derived cells; experiment: Transient-transfected HCV replicon, genotype 3a wild type; assay type: cell-based; conditions: Hepatitis C virus; transient-transfected replicon genotype 3a wild type, 72 h; read-out: EC50 3A WT
# [6] = system: genotype 2a stable HCV replicon (JFH-1) in Huh-7-derived cells; experiment: Stable subgenomic HCV replicon, genotype 2a, Renilla luciferase; assay type: cell-based; conditions: Hepatitis C virus, stable replicon genotype 2a, 72 h, read-out: EC50 2A RLUC
# Method: as §1, §2, §3, §4
# T1 sequence (Q9WMX2 1027-1207 E1202G, other chains not shown): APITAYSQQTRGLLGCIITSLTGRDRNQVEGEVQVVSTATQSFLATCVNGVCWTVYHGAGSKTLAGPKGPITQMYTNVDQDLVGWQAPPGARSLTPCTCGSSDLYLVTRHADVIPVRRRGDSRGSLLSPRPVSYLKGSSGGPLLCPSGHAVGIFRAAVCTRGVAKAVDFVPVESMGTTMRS
compound,measurement,setting,value
"COc1ccc2nc3c(nc2c1)O[C@@H]1C[C@@H](C(=O)N[C@]2(C(=O)NS(=O)(=O)C4(C)CC4)C[C@H]2C(F)F)N(C1)C(=O)[C@H](C(C)(C)C)NC(=O)O[C@@H]1[C@H]2CC[C@H](C2)[C@H]1CCCCC3 [Example 5, (1R,4S,4aR,8S,11S,13R,25aR)-8-tert-butyl-N-[(1R,2R)-2-(difluoromethyl)-1-{[(1-methylcyclopropyl)sulfonyl]carbamoyl}cyclopropyl]-17-methoxy-6,9-dioxo-2,3,4,4a,6,7,8,9,12,13,21,22,23,24,25,25a-hexadecahydro-1H,11H-1, 4:10,13-dimethanoquinoxalino[2,3-k][1,10,3,6]benzodioxadiazacyclononadecine-11-carboxamide]",EC50,[1],161 nM
same,EC50,[2],2.1 nM
same,Ki,NS3 genotype 1b protease,0.02 nM
same,EC50,[3],473 nM
same,EC50,[4],3.9 nM
same,EC50,[5],64 nM
same,EC50,[6],14 nM
"COc1ccc2nc3c(nc2c1)O[C@@H]1C[C@@H](C(=O)N[C@]2(C(=O)NS(=O)(=O)C4CC4)C[C@H]2C(F)F)N(C1)C(=O)[C@H](C(C)(C)C)NC(=O)O[C@H]1[C@H](CCCCC3)C[C@H]2C[C@H]21 [Example 7, (1aR,1bS,5S,8S,10R,22aR,23aR)-5-tert-butyl-N-[(1R,2R)-1-[(cyclopropylsulfonyl)carbamoyl]-2-(difluoromethyl)cyclopropyl]-14-methoxy-3,6-dioxo-1a,1b,3,4,5,6,9,10,18,19,20,21,22,22a,23,23a-hexadecahydro-1H,8H-7,10-methanocyclopropa[3′,40]cyclopenta[1′,2′:18,19][1,10,3,6]dioxadiazacyclononadecino[11,12-b]quinoxaline-8-carboxamide]",EC50,[1],1070 nM
same,EC50,[2],53 nM
same,Ki,NS3 genotype 1b protease,0.05 nM
same,EC50,[3],3300 nM
same,EC50,[4],55 nM
same,EC50,[5],928 nM
same,EC50,[6],199 nM
"COc1ccc2nc3c(nc2c1)O[C@@H]1C[C@@H](C(=O)N[C@]2(C(=O)NS(=O)(=O)C4(C)CC4)C[C@H]2C(F)F)N(C1)C(=O)[C@H](C(C)(C)C)NC(=O)O[C@H]1[C@H](CCCCC3)C[C@H]2C[C@H]21 [Example 8, (1aR,1bS,5S,8S,10R,22aR,23aR)-5-tert-butyl-N-[(1R,2R)-2-(difluoromethyl)-1-{[(1-methylcyclopropyl)sulfonyl]carbamoyl}cyclopropyl]-14-methoxy-3,6-dioxo-1a,1b,3,4,5,6,9,10,18,19,20,21,22,22a, 23,23a-hexadecahydro-1H,8H-7,10-methanocyclopropa[3′,4′]cyclopenta [1′,2′:18,19][1,10,3,6]dioxadiazacyclononadecino[11,12-b]quinoxaline-8-carboxamide]",EC50,[1],712 nM
same,EC50,[2],33 nM
same,Ki,NS3 genotype 1b protease,0.04 nM
same,EC50,[3],2450 nM
same,EC50,[4],33 nM
same,EC50,[5],817 nM
same,EC50,[6],110 nM
"COc1ccc2nc3c(nc2c1)O[C@@H]1C[C@@H](C(=O)N[C@]2(C(=O)NS(=O)(=O)C4(C)CC4)C[C@H]2C(F)F)N(C1)C(=O)[C@H](C(C)(C)C)NC(=O)O[C@@H]1C[C@@H]2C[C@@H]2[C@H]1CCCCC3(F)F [Example 10, (1aS,2aR,6S,9S,11R,23aR,23bS)-6-tert-butyl-N-[(1R,2R)-2-(difluoromethyl)-1-{[(1-methylcyclopropyl)sulfonyl]carbamoyl}cyclopropyl]-19,19-difluoro-15-methoxy-4,7-dioxo-1a,2,2a,4,5,6,7,10,11,19,20,21,22,23,23a,23b-hexadecahydro-1H,9H-8,11-methanocyclopropa [4′,5′]cyclopenta[1′,2′:18,19][1,10,3,6]dioxadiazacyclononadecino[11,12-b]quinoxaline-9-carboxamide]",EC50,[1],1 nM
same,EC50,[2],0.75 nM
same,Ki,NS3 genotype 1b protease,0.02 nM
same,EC50,[3],4.9 nM
same,EC50,[4],1.3 nM
same,EC50,[5],2.3 nM
same,EC50,[6],1.6 nM
"CC(C)(C)[C@@H]1NC(=O)O[C@@H]2C[C@@H]3C[C@@H]3[C@H]2CCCCCc2nc3ccc(F)cc3nc2O[C@@H]2C[C@@H](C(=O)N[C@]3(C(=O)NS(=O)(=O)C4(C)CC4)C[C@H]3C(F)F)N(C2)C1=O [Example 11, (1aS,2aR,6S,9S,11R,23aR,23bS)-6-tert-butyl-N-[(1R,2R)-2-(difluoromethyl)-1-{[(1-methylcyclopropyl)sulfonyl]carbamoyl}cyclopropyl]-15-fluoro-4,7-dioxo-1a,2,2a,4,5,6,7,10,11,19,20,21,22,23,23a,23b-hexadecahydro-1H,9H-8,11-methanocyclopropa[4′,5′]cyclopenta[1′,2′:18,19][1,10,3,6]dioxadiazacyclononadecino[11,12-b]quinoxaline-9-carboxamide]",EC50,[1],8.6 nM
same,EC50,[2],0.78 nM
same,Ki,NS3 genotype 1b protease,0.02 nM
same,EC50,[3],61 nM
same,EC50,[4],1.2 nM
same,EC50,[5],9.7 nM
same,EC50,[6],2 nM
"CC(C)(C)[C@@H]1NC(=O)O[C@@H]2C[C@@H]3C[C@@H]3[C@H]2CCCCCc2nc3ccc(F)cc3nc2O[C@@H]2C[C@@H](C(=O)N[C@]3(C(=O)NS(=O)(=O)C4CC4)C[C@H]3C(F)F)N(C2)C1=O [Example 12, (1aS,2aR,6S,9S,11R,23aR,23bS)-6-tert-butyl-N-[(1R,2R)-1-[(cyclopropylsulfonyl)carbamoyl]-2-(difluoromethyl)cyclopropyl]-15-fluoro-4,7-dioxo-1a,2,2a,4,5,6,7,10,11,19,20,21,22,23,23a,23b-hexadecahydro-1H,9H-8,11-methanocyclopropa[4′,5′]cyclopenta[1′,2′:18,19][1,10,3,6]dioxadiazacyclononadecino[11,12-b]quinoxaline-9-carboxamide]",EC50,[1],15.6 nM
same,EC50,[2],0.64 nM
same,Ki,NS3 genotype 1b protease,0.02 nM
same,EC50,[3],89 nM
same,EC50,[4],1.4 nM
same,EC50,[5],22 nM
same,EC50,[6],2.6 nM

# — patent US9617310B2 (priority 2013, dated 2017)
